Measurements published in patent US20240109897A1, “MODULATORS OF FPR1 AND METHODS OF USING THE SAME” (BEIJING TIANTAN HOSPITAL, priority 2021, published 2024).

What was measured:
FPR1 = target: T1, FPR1 (UniProt P21462); assay: fMLP-FPR1 mediated calcium signaling assay in FPR1-overexpressing 293T cells; assay type: cell-based, human or mouse; conditions: inhibition of fMLP-FPR1 mediated intracellular calcium change; hFPR1 or mFPR1 overexpressing 293T cells; 10 min preincubation; INDO-1 AM, FACS
T1 sequence (P21462 1-350): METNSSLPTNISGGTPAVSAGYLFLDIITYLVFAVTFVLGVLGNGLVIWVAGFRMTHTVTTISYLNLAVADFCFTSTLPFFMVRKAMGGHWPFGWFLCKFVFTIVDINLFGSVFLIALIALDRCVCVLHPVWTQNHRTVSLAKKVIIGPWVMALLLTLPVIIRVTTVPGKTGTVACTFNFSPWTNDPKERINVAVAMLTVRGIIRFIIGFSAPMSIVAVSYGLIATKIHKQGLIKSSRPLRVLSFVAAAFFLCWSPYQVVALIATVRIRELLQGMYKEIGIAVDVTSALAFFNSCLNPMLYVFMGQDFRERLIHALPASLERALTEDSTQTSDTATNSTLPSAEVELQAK
Procedure: The effects of the compounds of this disclosure on regulating the FPR1-mediated cell signaling were measured by monitoring the cellular calcium level change, as illustrated by the exemplary examples in Table 2. The dose response of the illustrated examples are reported categorically using the following ranking criteria: *** (IC50≤100 nM); ** (IC50≥100 to ≤1000 nM); * (IC50≥1000 to ≤10,000 nM); N.D.—not detected.
The coding DNA sequence (CDS) of human FPR1 (NM_001193306) and mouse FPR1 (NM_013521) were cloned and inserted to the lentivirus vector GV367 (Vector information:http://www.genechem.com.cn/index/supports/tool_search.html?keywords=GV367) under the conduction of pCMV promoter. 293T cells were cultured in H-DMEM supplemented with 10% FBS and 1% penicillin-streptomycin (PS) at 37° C. in 5% CO2 Incubator. 293T cells were transfected with lentivirus vector GV367 containing the CDS of human or mouse FPR1 for 24 h and then cultured with complete medium for another 48 h. At 72 h after transfected, cells were passaged, and 5 μg/ml puromycin was added to screen FPR1-transfected 293T cells. The overexpression of human or mouse FPR1 in 293 T cells were detected by immunostaining with anti-mouse or human FPR1 antibodies (Biolegend or Antibody Online).
Cultured hFPR1 or mFPR1 overexpressing 293T cells were labeled with 1 μM INDO-1 AM calcium sensor dye (eBioscience) for 30 min at 37° C. After washed with 1×PBS, cells were resuspended with H-DMEM containing 3% FBS, and were maintained on ice prior to the measurement of intracellular calcium concentration. To measure the inhibitory potency of designed potential FPR1 antagonists, hFPR1 or mFPR1 overexpressing 293T cells were incubated with the compound for 10 min at room temperature. The cytoplasmic calcium levels were then measured by FACS Aria III at 37° C. prior to and after the stimulation of fMLP. We defined the immunofluorescence intensity of indo-1 AM before adding fMLP as the basal value, and the intensity at the peak immunofluorescence reduction after adding fMLP as minimum value for each sample. The change of intracellular calcium was calculated as follow: (basal value−minimum value)/basal value×100%. The IC50 of each compound in inhibiting fMLP-FPR1 mediated intracellular calcium concentration in 293T cells were automatically calculated with Prism 8.0.2 software (GraphPad) after inputting a series of change of intracellular calcium at multiple concentration gradients (from 0 nM to 100 μM).

ICH mice = assay: MRI lesion, hematoma and perihematomal edema volume in intracerebral hemorrhage (ICH) mouse model; assay type: in vivo; conditions: brain MRI, vs vehicle
From the text: The intracerebral hemorrhage (ICH) model in mice was used to illustrate the protective benefits of the compounds of this disclosure, and FIG. 1 depicts the procedure in preparing this model. ICH was induced in C57 B/L6 male mice by the injection of an autologous blood or collagenase as previously described (Lauer et al., Circulation 124: 1654-1662 (2011); Rynkowski et al., Nat. Protoc. 3:122-128 (2008)). Mice were anesthetized using isoflurane inhalation and fixed on a stereotactic frame. A burr hole was drilled on the right side of the skull at 2.3 mm lateral to the midline and 0.5 mm anterior to the bregma. For the autologous blood model, 30 μl of non-heparinized blood was withdrawn from the angular vein. The first 5 μl blood was injected at a depth of 3 mm beneath the hole, and the rest 25 μl blood were injected at 3.7 mm beneath the hole with a rate of 1 μl/min. In the collagenase model, 0.038 U of the bacterial collagenase (in 0.5 μl saline) was infused to the striatum (0.5 mm anterior, 2.3 mm right lateral, and 3.5 mm deep relative to bregma) at a speed of 0.5 μl/min. Mice on the sham control were injected with an equal volume of saline. Throughout the procedure, the body temperature was maintained at 37° C. with a homeothermic blanket. After the surgery, mice were under observation with free access to food and water. […]
The total lesion volume was measured on the 7T small-animal MM scanner (Bruker, Corp., USA) as described (Li et al., 2017). The T2-weighted water imaging was recorded with following parameters (repetition time (TR)=4500 ms, echo time (TE)=65.5 ms, field of view (FOV)=28×28 mm^2, image matrix=256×256, at 0.5-mm slice thickness). […] The volumes were manually outlined and calculated by multiplying the sum of the volume by the distance between sections (0.5 mm) using MIPAV software. PHE volumes were calculated as total lesion volume minus hematoma volume. MRI data were analyzed by two investigators blinded to experimental groups.

| SMILES | IC50 (FPR1) | peri-hematomal edema (ICH mice; at 3 days after ICH) | hematoma size (ICH mice) |
| --- | --- | --- | --- |
| CO[C@H]1CC[C@@H](N2C(=O)c3n[nH]c(-c4cc(C)ccc4O)c3C2c2ccc(C(F)(F)F)cc2)CC1 (mixture of isomers) [Compound 7, rac-3-(2-hydroxy-5-methylphenyl)-5-((1S,4S)-4-methoxycyclohexyl)-4-(4-(trifluoromethyl)phenyl)-4,5-dihydropyrrolo[3,4-c]pyrazol-6(2H)-one] | 1000 to 10000 nM | – | – |
| O=C1c2n[nH]c(-c3ccccn3)c2C(c2ccc(Cl)cc2)N1C1CCOCC1 (racemic) [Comp14] | – | significantly reduced | no difference |
| COC1CCC(N2C(=O)c3n[nH]c(-c4cc(C)ccc4O)c3C2c2ccc(C(F)(F)F)cc2)CC1 (racemic) [Compound 8, Rac-3-(2-hydroxy-5-methylphenyl)-5-((1r,4r)-4-methoxycyclohexyl)-4-(4-(trifluoromethyl)phenyl)-4,5-dihydropyrrolo[3,4-c]pyrazol-6(2H)-one] | 1000 to 10000 nM | – | – |
| O=C1c2n[nH]c(-c3cc(F)ccc3O)c2C(c2ccc(Cl)cc2)N1C1CCOCC1 (racemic) [Compound 10, Rac-4-(4-chlorophenyl)-3-(5-fluoro-2-hydroxyphenyl)-5-(tetrahydro-2H-pyran-4-yl)-4,5-dihydropyrrolo[3,4-c]pyrazol-6(2H)-one] | 1000 to 10000 nM | – | – |
| O=C1c2n[nH]c(-c3cc(F)ccc3O)c2C(c2ccc(C(F)(F)F)cc2)N1C1CCOCC1 (racemic) [Compound 13, rac-3-(5-fluoro-2-hydroxyphenyl)-5-(tetrahydro-2H-pyran-4-yl)-4-(4-(trifluoromethyl)phenyl)-4,5-dihydropyrrolo[3,4-c]pyrazol-6(2H)-one] | 1000 to 10000 nM | – | – |
| O=C1c2n[nH]c(-c3ccccn3)c2C(c2ccc(Cl)cc2)N1C1CCOCC1 (racemic) [Compound 14, Rac-4-(4-chlorophenyl)-3-(pyridin-2-yl)-5-(tetrahydro-2H-pyran-4-yl)-4,5-dihydropyrrolo[3,4-c]pyrazol-6(2H)-one] | 1000 to 10000 nM | – | – |
| Cc1ccc(O)c(-c2[nH]nc3c2[C@H](c2ccc(C(F)(F)F)cc2)N(C2CCOCC2)C3=O)c1 (single isomer, unassigned) [Compound 2] | 100 to 1000 nM | – | – |

Continued, in another order:

| IC50 (FPR1) | SMILES | peri-hematomal edema (ICH mice; at 3 days after ICH) | hematoma size (ICH mice) |
| --- | --- | --- | --- |
| 1000 to 10000 nM | Cc1ccc(O)c(-c2[nH]nc3c2C(c2ccc(C(F)(F)F)cc2)N(C2CCNCC2)C3=O)c1 (racemic) [Compound 4, Rac-3-(2-hydroxy-5-methylphenyl)-5-(piperidin-4-yl)-4-(4-(trifluoromethyl)phenyl)-4,5-dihydropyrrolo[3,4-c]pyrazol-6(2H)-one] | – | – |
| 100 to 1000 nM | CC(=O)N1CCC(N2C(=O)c3n[nH]c(-c4cc(C)ccc4O)c3C2c2ccc(C(F)(F)F)cc2)CC1 (racemic) [Compound 5, Rac-5-(1-acetylpiperidin-4-yl)-3-(2-hydroxy-5-methylphenyl)-4-(4-(trifluoromethyl)phenyl)-4,5-dihydropyrrolo[3,4-c]pyrazol-6(2H)-one] | – | – |
| 100 to 1000 nM | O=C1c2n[nH]c(-c3cc(Cl)ccc3O)c2C(c2ccc(C(F)(F)F)cc2)N1C1CCOCC1 (racemic) [Compound 9, Rac-3-(5-chloro-2-hydroxyphenyl)-5-(tetrahydro-2H-pyran-4-yl)-4-(4-(trifluoromethyl)phenyl)-4,5-dihydropyrrolo[3,4-c]pyrazol-6(2H)-one] | – | – |
| 1000 to 10000 nM | Cc1ccc(O)c(-c2[nH]nc3c2[C@@H](c2ccc(C(F)(F)F)cc2)N(C2CCOCC2)C3=O)c1 (single isomer, unassigned) [Compound 3] | – | – |
| 1000 to 10000 nM | O=C1c2n[nH]c(-c3cc(F)ccc3O)c2[C@H](c2ccc(Cl)cc2)N1C1CCOCC1 (single isomer, unassigned) [Compound 11] | – | – |
| 1000 to 10000 nM | O=C1c2n[nH]c(-c3cc(F)ccc3O)c2[C@@H](c2ccc(Cl)cc2)N1C1CCOCC1 (single isomer, unassigned) [Compound 12] | – | – |
